From publication PMC10525924, “Engineering and Purification of Microcin C7 Variants Resistant to Trypsin and Analysis of Their Biological Activity” (Antibiotics, 2023)
Entries after “also recorded” stand apart in the source; their conditions may differ. Where a SMILES comes first, the peptide text is derived from it. Where no end group is shown, it is not given here.

Tests used:
[1] = test system: chymotrypsin; assay: Remaining amount by RP-HPLC after chymotrypsin treatment; assay type: in vitro ADME; settings: chymotrypsin (isolated protease); chymotrypsin treated for 3 h; read-out RP-HPLC; Table S2
[2] = test system: pepsin; assay: Remaining amount by RP-HPLC after pepsin treatment; assay type: in vitro ADME; settings: pepsin (isolated protease); pepsin treated for 3 h; read-out RP-HPLC; Table S2
[3] = test system: indicator bacteria; settings: second to seventh codons of mccA replaced; cited from earlier work
Source text: The heptapeptide precursor of McC, f-MRTGNAN, is encoded by the first gene in the mcc gene clusters, mccA [11]. Considering its protein nature, it is suitable for gene-based peptide engineering. Kazakov et al. first applied site-directed mutagenesis on the mccA gene, systematically replacing the second to seventh codons of mccA encoding 19 standard amino acids for a total of 114 mutations.

[4] = test system: E. coli K88; assay: microbe, parasite or virus in culture; assay type: cell-based; settings: agar diffusion, fermentation supernatant, not trypsin-treated
[5] = test system: trypsin; assay: Remaining amount by RP-HPLC after trypsin treatment; settings: trypsin treatment 3 h
Procedure: To test whether the variants were tolerant to trypsin or other digestive enzymes, the amount of the remaining McC and its analogues remaining was determined by RP-HPLC after trypsin, pepsin, and chymotrypsin treated for 3 h (Table S2), and the inhibition zones of trypsin-treated variants were tested using the same method (Table 2).
The fermentation broth was collected via centrifugation at 12,000× g at 4 °C for 10 min; the supernatants contained the McC variants. The supernatants and trypsin were mixed at a ratio of 9:1 (v/v; the final concentration of trypsin was 50 μg/mL) and incubated in a bath at 37 °C for 3 h. The pH was adjusted to 6.8. The pH value of the fermentation broth was measured before and after treatment, and an approximate pH value of 7 was considered normal.

[6] = cited from earlier work
Source text: (§1) The McC as a new generation of antimicrobials is now receiving increased attention because of its antimicrobial activity against a wide range of Gram-negative bacteria, including Escherichia, Klebsiella, Salmonella, Shigella, and Proteus species. However, […] proteolytic enzymes in the stomach and the small intestine, such as pepsin, trypsin, and chymotrypsin, need to be considered before the application of McC or other microcins in different fields.

[7] = test system: chymotrypsin; settings: cited from earlier work
Source text: as §1

CSCC[C@H](NC=O)C(=O)N[C@@H](Cc1c[nH]c2ccccc12)C(=O)N[C@H](C(=O)NCC(=O)N[C@@H](CC(N)=O)C(=O)N[C@@H](C)C(=O)N[C@@H](CC(=O)O)C(=O)NP(=O)(OCCCN)OC[C@H]1O[C@@H](n2cnc3c(N)ncnc32)[C@H](O)[C@@H]1O)[C@@H](C)O (stereo partly shown) [R2W] (HELM PEPTIDE1{[O=C[*:2]].M.W.T.G.N.A.[NCCCOP(=O)(NC(=O)[C@H](CC(=O)O)N[*:1])OC[C@H]1O[C@@H](n2cnc3c(N)ncnc32)[C@H](O)[C@@H]1O]}$$$$V2.0)
remaining at 3 h [1]: 41.3 ± 1.03% | remaining at 3 h [2]: 91.3 ± 1.26% | antimicrobial activity of mccA substitution variants [3]: bacteriostatic | bacteriostatic effect on indicator strain K88 [4]: no bacteriostatic effects

MRPGNAN [T3P]
degradation by / resistance to trypsin [5]: no longer degraded by trypsin; also recorded: exhibited resistance to trypsin | bacteriostatic effect on indicator strain K88 [4]: no bacteriostatic effects

MRPTGNAN
degradation by / resistance to trypsin [5]: no longer degraded by trypsin; also recorded: exhibited resistance to trypsin | bacteriostatic effect on indicator strain K88 [4]: no bacteriostatic effects

microcin J25 (GGAGHVPEYFVGIGTPISFYG; ends and bridges not checked; UniProt Q9X2V7 38-58, looked up) [microcin studied by Yu et al]
stability in the gastrointestinal tract [6]: stable | degradation upon exposure to chymotrypsin [7]: completely degraded
